The source of these data is US20040097408A1, “Compounds regulating cell proliferation and differentiation” (priority 2001, published 2004).

One assay deals with A6 cells. The assay can be described thus: effect of FCCP and valinomycin on F16 accumulation in mitochondria. The class given is cell-based, mouse. The conditions noted are these: F16 3 μM.
Assay [1] concerns EpH4-A6, FKBR3, MDA-MD-468 and MCF-7 cells. The experiment in a line: cytoblot of QR on transformed cells. The class given is cell-based. An excerpt: (§1) The compound was included in cytoblot experiments, as described above, on the following cells: EpH4-A6 and control EpH4-EV cells and the following human breast cancer cell lines: FKBR3 (Neu positive cells); MDA-MD-468 (which over-express EGFR); and MCF-7 (which over-express Her3/ErbB3; EGFR and Neu).

The test system of another assay is control EpH4-EV cells. The assay can be described thus: cytoblot of QR on normal cells. The class given is cell-based, mouse.
Source text: as §1

The test system of assay [2] is mitochondria of cancer cells. The assay can be described thus: accumulation of QR in mitochondria. The class given is cell-based.

Some results are limits rather than exact numbers.

Method for A6 cells: In order to test the contribution of the mitochondrial membrane potential (ΔΨm) to the accumulation of F16 in mitochondria, the effect of FCCP, an uncoupler of mitochondrial respiration, and the effect of valinomycin, a potassium ionosphore, were tested.
The effect of the protonophore FCCP on F16 accumulation was performed as previously done for the colocalization experiments described above. EpH4-A6 cells preincubated with F16 (3 μM) were subsequently treated with 5 μM FCCP. Images were acquired immediately before, 1 min and 5 min after FCCP addition and visulized under 40× magnification.

For the compound `N#CC(C#N)=NNc1ccc(OC(F)(F)F)cc1` [FCCP], the “effect of preincubation on F16 entry and accumulation in mitochondria” value in the assay with A6 cells was “retarded the entry and greatly reduced the overall accumulation of F16 inside mitochondria”.
For `CC[n+]1c(/C=C/c2ccc(N(C)C)cc2)ccc2ccccc21` [QR, Quinaldine Red], the “proliferation of transformed cells at 10 nM” value in assay [1] (10 nM) is listed as “partially inhibited”. The “proliferation of transformed cells at 100 nM” value in assay [1] (100 nM) is reported as “essentially completely inhibited”. Also, the “concentration inhibiting proliferation of transformed cells (as low as)” value in assay [1] (all of the transformed cells tested) came to 10 nM. The “concentration inhibiting normal cells” value with control EpH4-EV cells is at least 10 µM. Also, in assay [2], the accumulation in mitochondria entry was “accumulate in mitochondria of cancer cells and essentially not in mitochondria of normal cells”.
Regarding `CC(C)[C@@H]1NC(=O)[C@H](C)OC(=O)[C@@H](C(C)C)NC(=O)[C@@H](C(C)C)OC(=O)[C@H](C(C)C)NC(=O)[C@H](C)OC(=O)[C@@H](C(C)C)NC(=O)[C@@H](C(C)C)OC(=O)[C@H](C(C)C)NC(=O)[C@H](C)OC(=O)[C@@H](C(C)C)NC(=O)[C@@H](C(C)C)OC1=O` [valinomycin], in the assay with A6 cells, the “effect of preincubation on F16 entry and accumulation in mitochondria” value is “retarded the entry and greatly reduced the overall accumulation of F16 inside mitochondria”.
